Laboratory results reported in US8754052B2, “Treatment of nephrolithiasis and urolithiasis using 1,2,3,4,6-penta-O-galloyl-beta-D-glucose (PGG)” (Mayo Foundation for Medical Education and Research, priority 2008, dated 2014).

Assays:
[1] = test system: MDCK I cells; assay: Cytotoxicity assay (MTT colorimetric assay); format: cell-based, Canine
Protocol: (§1) Renal epithelial cells were of the Madin-Darby Canine kidney (MDCK) line, type I, derived from the distal nephron. Cells were grown in DMEM containing 25 mmol/L glucose at 37° C. in a humidified atmosphere containing […] CO2. To prepare high-density, quiescent cultures at 1×10^6 cells/35-mm plastic plate (9.62 cm^2; Nunc, Naperville, Ill., USA) were performed in DMEM containing 10% fetal bovine serum. Two days later when the cells were confluent, the established monolayer was used in the examples that follow.
The effect of PGG on cytotoxicity against MDCK 1 cells was evaluated using a MTT (3-(4,5-dimethylthiazol-2-yl)-2,5-diphenyltetrazolium bromide) colorimetric assay. PGG was dissolved with dimethylsulfoxide (DMSO). The cells were seeded onto 96-well microplates at a density of 1×10^4 cells per well in 100 μL of DMEM containing 10% fetal bovine serum. […] Cells were incubated at 37° C. for 1 h and the optical density was measured using a microplate reader (Molecular Devices Co.) set at 570 nm. Cell viability was calculated as the percentage of viable cells in the PGG treated group versus those in the untreated control group using the following equation: cell viability (%)=[OD (PGG)−OD (Blank)/OD (Control)−OD (Blank)]×100.

[2] = test system: MDCK I cells; assay: Wound healing assay (migration after scrape wounding); format: cell-based, Canine; conditions: Canis lupus familiaris, 24 h, FIG. 3, read-out: inhibiting wound healing (migration after scrape wounding)
Protocol: as §1
MDCK I cells were seeded in a 35-mm plastic plate to confluent status overnight and incubated with serum-free medium for 6 h. A plastic pipette tip (200 μl size) was used to scrape a line between the MDCK1 cells that was approximately 2 to 3 mm wide across the entire culture dish. The medium was replaced by serum-free medium including various concentrations (1, 5 and 10 μM) of PGG. After incubation at 37° C. for 24 h, each plate was photographed (100×) and quantified.

[3] = test system: MDCK I cells; assay: [14C]COM crystal binding assay; format: cell-based, Canine
Protocol: Calcium oxalate monohydrate (COM) crystals were prepared from supersaturated solutions. To prepare radioactive COM crystals, [^14C]oxalic acid (30-60 mCi/mmol; ICN Biomedicals, Irivine, Calif., USA) was added to a sodium oxalate solution, producing a specific activity of 10^5 cpm/mL, and sufficient calcium chloride was then added to form a supersaturated solution. […] Dulbecco-Vogt modified Eagle's essential medium (DMEM; GIBCO, Life Technologies Inc., NY), antibiotic-antimycotics were purchased from GIBCO (Grand island, NY). Fetal bovine serum (FBS) was from JRH (Lenexa, Kans.). HEPES (N-[2-hydroxyethyl]piperazine-N′-[2-ethanesulfonic acid]), sodium bicarbonate, MTT (3-(4,5-dimethylthiazol-2-yl)-2,5-diphenyltetrazolium bromide, BSA (bovine serum albumin were obtained from Sigma Chemical Co. (St. Louis, Mo.).
as §1
MDCK I cells were treated with various concentrations (1, 5 and 10 μM) of PGG for 15 min or 24 h with and without wound damage and washed with phosphate-buffered saline (PBS, pH 7.4). Then [^14C] calcium oxalate monohydrate (COM) crystals were added to MDCK 1 cells, until a final concentration of 200 μg/mL (41.6 μg/cm^2 of cells) was achieved. The culture dishes were gently agitated for 5 seconds to uniformly distribute the crystals so that they settled to the surface of the cell monolayer under the force of gravity. After 2 min, the buffer was aspirated and the cells were washed 3 times with PBS. The cells and adherent crystals were then liquefied in 1 mL of 10% NaOH for 1 h and transferred to a scintillation vial containing 4.5 mL of Ecoscient (National Diagnostics, E. Palmetto, Fla., USA). The amount of radioactivity was measured, as described previously (See Riese, R. J. et al. Am J. Physiol (1992) 262: F177-84). Similarly, to precoat the [^14C]COM crystals with PGG, 0.4 mg [^14C]COM crystals were placed in a 5-mL tube containing 2 mL of a solution containing various concentrations (1, 5 and 10 μM) of PGG diluted in PBS. The crystals were incubated under end-over-end rotation for 15 min at room temperature, pelleted by centrifugation at 2,000 r.p.m. for 5 min, washed with PBS and then resuspended in 2 mL PBS. Two minutes later, the crystal binding activity was measured as described above.

[4] = test system: hyaluronan; assay: Hyaluronan expression by confocal microscopy and Western blot; format: cell-based, Canine
Protocol: A middle line was scraped in the confluent MDCK 1 cells grown on coverslips using a 200 μL plastic pipette tip. The MDCK I cells on coverslips were then exposed to various concentrations (1, 5 and 10 μM) of PGG for 15 minutes or 24 hours at 37° C. The coverslips were rinsed three times with PBS, and fixed using 3.7% formaldehyde in PBS for 15 min. Cells were then rinsed three times with PBS and incubated with 1% goat serum for 1 h to block nonspecific binding sites. The goat serum was aspirated and the cells were incubated for 1 hour in a humidified chamber at 37° C. with biotinylated HABP. The cells were then washed with PBS (10 min×3) and then incubated 1 h with an avidin-conjugated Texas red (Molecular Probes, Eugene, Oreg.) in a humidified chamber at 37° C. Cells were again washed with PBS (10 min×3), and the coverslips were mounted onto glass slides using Slow-Fade (Molecular Probes, Eugene, Oreg.). The XZ section was scanned using a LSM 510 confocal microscope (Carl Zeiss, Oberkochen, Germany) equipped with an Axiovert 100M microscope and a c-Apochromat 63/1.2 numerical aperture water-immersion lens. Texas red was excited at 568-nm of an argon-krypton laser and the Emission for Texas red was collected at >585 nm.
For Western blotting, MDCK-I cells with or without scrape-wounding 24 hours earlier were harvested and washed with cold PBS; PGG (1, 5, 10 μM) was added to the medium 15 min or 24 hours prior to harvest. Cells were incubated in lysis buffer (50 mM Tris-HCl (pH 7.4), 150 mM NaCl, 1% Triton X-100, 0.1% SDS and 1 mM EDTA) supplemented with protease inhibitors ([…] and 1 mM of 4-(2-aminoethyl) benzenesulfonyl fluoride) and phosphatase inhibitors (1 mM NaF and 1 mM Na3VO4) for 20 min on ice. Lysates were centrifuged at 14,000 g for 20 min at 4° C. Lysates containing […] of protein were fractionated by SDS-PAGE and electrotransferred to a Hybond ECL transfer membrane (Amersham Pharmacia, Arlington Heights, Ill.). The blocked membranes were then incubated with primary antibodies (1:200 dilution) of HABP. […]

[5] = Toxicology study in mice orally fed with PGG; format: in vivo, ICR mice; conditions: oral 10, 20 and 40 mg/kg
Protocol: To examine the optimal dose for animal study, a toxicology study was performed in mice orally fed with PGG (10, 20, and 40 mg/kg). Each group consisted of five ICR mice.

[6] = test system: hyperoxaluric wild type rats; assay: Ethylene glycol/ammonium chloride induced nephrolithiasis in hyperoxaluric rats; format: in vivo, Harlan Sprague Dawley Rats; conditions: for Serum BUN (mean ± SD) / Serum Calcium (mean ± SD) / Serum Creatinine (mean ± SD) / Serum Phosphate (mean ± SD) / Serum Uric acid (mean ± SD): rat serum; for Urine Calcium / Urine Mean Vol ± SD / Urine Mean pH ± SD: rat urine; for Survival (%): rats
Protocol: Rats were administered PGG, with and without ethylene glycol given to render the rats hyperoxaluric. The effect of PGG on renal crystal deposition was assessed, to confirm the ability of PGG to prevent crystal deposition. Urine of animals was collected and extensively studied to quantitate biochemical and functional changes, and determine the mechanism of the apparent salutary effects, in several studies outlined in Table 1. Functional effects of treated rat urine on crystal nucleation, growth, aggregation and cell interaction was also tested, and compared to urine from control animals.
Six rats per group were treated (see Table 1 below). Harlan Sprague Dawley Rats (300 g) received 0.8% ethylene glycol and 1% ammonium chloride mixed with the drinking water to induce nephrolithiasis, PGG in 2 different doses (4 mg/kg and 20 mg/kg), or both for a full 4 weeks. The doses of PGG covered the range deemed effective in mouse experiments on angiogenesis over a 2-log range factored for relative body size. PGG was administered to all rats via […]. Urine was collected for chemistries and crystalluria quantification at weekly intervals, with full urinary inhibition studies at 3 weeks, and histologic evaluation after week 3. Kidneys were examined quantitatively for the presence of cortical and medullary crystals, as well as interstitial fibrosis, by a blinded observer. Crystal deposition within cortex and medulla were also quantified under polarizing microscopy using Metamorph software.
Twenty four-hour rat urine samples were collected in a metabolic cage with sodium azide as a preservative. Urine was centrifuged, the pellet resuspended, and crystal size and quantity assessed in a hemocytometer.
Spot urine or 24-hr urine samples from individual rats under study were assayed before and after hyperoxaluric treatment. Spot urine samples were collected directly into Eppendorf tubes, centrifuged at 5,000×g for 5 min to dispose of cell debris, and stored at −80° C. until use. Urinary concentrations of oxalate, calcium and other determinants of SS were measured. SS was calculated using the EQUIL2 program.
Urine chemistry and enzymes were evaluated to measure urine pH, […] clearance, the presence and concentration of oxalate, calcium, citrate, and 8-Hydroxy-2′-deoxyguanosine (8-OH-dG). 8-OH-dG has been regarded as a potential marker of oxidative DNA damage induced by ROS. Urinary 8-OHdG was measured using a commercially available competitive 8-OHdG enzyme-linked immunosorbent assay kit. The number of oxalate crystal deposits in the kidneys was measured using a hematoxylin and eosin stain. Reverse transcriptase PCR (RT-PCR) was used to detect and quantify superoxide dismutase (SOD) mRNA and osteopontin mRNA. Immunohistochemical staining techniques were used to measure SOD and osteopontin protein expression […]. Blood chemistry was also studied to measure levels of creatinine, uric acid, phosphate, blood urea nitrogen (BUN), and malondialdehyde (MDA) in the subjects.

In the case of O=C(OC[C@H]1O[C@@H](OC(=O)c2cc(O)c(O)c(O)c2)[C@H](OC(=O)c2cc(O)c(O)c(O)c2)[C@@H](OC(=O)c2cc(O)c(O)c(O)c2)[C@@H]1OC(=O)c1cc(O)c(O)c(O)c1)c1cc(O)c(O)c(O)c1 [PGG, 1,2,3,4,6-penta-O-galloyl-beta-D-glucose], the “cytotoxicity against MDCK I cells” value ([1]; concentrations up to 25 uM, 24 h, FIG. 1) is reported as “did not exert any significant cytotoxicity”, the “cytotoxicity on MDCK I cells (FIG. 1 legend)” value ([1]; except at high concentrations) is reported as “lack of cytotoxicity” and the inhibition at 1 µM ([2]; 1 μM PGG) is reported as 2%. The inhibition at 5 µM ([2]; 5 μM PGG) was 26%, the inhibition at 10 µM ([2]; 10 μM PGG) was 49% and the “COM crystal adhesion to MDCK I cells” value ([3]; PGG added to the buffer, concentration-dependent, FIG. 4A) was “significantly reduced”. For the same molecule, the “COM adhesion to scrape-wounded MDCK I cells” value ([3]; after 15 min or 24 h incubation time, FIGS. 2A and 2B) was “significantly inhibited”, the “crystal binding by PGG-pretreated MDCK I cells” value ([3]; cells pretreated 15 minutes or 24 hours, FIG. 5) was “bound less crystals” and the “binding of PGG-precoated COM crystals to cells” value ([3]; crystals precoated with PGG 15 min, concentration-dependent, FIG. 4B) was “decrease their subsequent binding to cells”. For the same molecule, the “total cell hyaluronan expression by wounded monolayers (Western blot), effect versus 15 min” value ([4]; 24 hours exposure, 1-10 μM, FIG. 6B) was “slightly more pronounced”, the “hyaluronan expression on the surface of wounded MDCK 1 cells (confocal microscopy)” value ([4]; PGG treatment 15 minutes or 24 hours, concentration dependent, FIG. 6A) was “attenuated” and the “total cell hyaluronan expression by wounded monolayers (Western blot)” value ([4]; within 15 minutes of PGG addition, FIG. 6B) was “decreased”. For the same molecule, the “body weight of mice, PGG versus control groups” value ([5]; FIG. 7) was “no significant difference”, the hematological values ([5]; FIG. 9) was “did not affect” and the “GOT and GPT levels” value ([5]; FIG. 10) was “did not affect”. The “shapes and weights of organs (spleen, liver, kidney, lung)” value ([5]; FIGS. 8 and 11) was “did not affect”, the “survival rate compared with normal group” value ([6]; 20 mg/kg PGG) was “mirrored that of those in the normal group” and the “Serum BUN (mean ± SD)” value ([6]; PGG 4 mg/kg + EG) was 24.6 ± 3.9 mg/dL. For the same molecule, the “Serum Calcium (mean ± SD)” value ([6]; PGG 4 mg/kg + EG) was 10.9 ± 1.1 mg/dL, the “Serum Creatinine (mean ± SD)” value ([6]; PGG 4 mg/kg + EG) was 0.6 ± 0.5 mg/dL and the “Serum Phosphate (mean ± SD)” value ([6]; PGG 4 mg/kg + EG) was 10.7 ± 1.4 mg/dL. For the same molecule, the “Serum Uric acid (mean ± SD)” value ([6]; PGG 4 mg/kg + EG) was 2.9 ± 3.2 mg/dL, the “Urine Calcium” value ([6]; PGG 4 mg/kg + EG) was 2.95 ± 0.31 and the “Urine Mean Vol ± SD” value ([6]; PGG 4 mg/kg + EG) was 33.0 ± 3.74 mL. The “Urine Mean pH ± SD” value ([6]; PGG 4 mg/kg + EG) was 6.7 ± 1.2, the “Survival (%)” value ([6]; PGG 4 mg/kg) was 83% and the “Serum BUN (mean ± SD)” value ([6]; PGG 20 mg/kg + EG) was 23.3 ± 3.7 mg/dL. For the same molecule, the “Serum Calcium (mean ± SD)” value ([6]; PGG 20 mg/kg + EG) was 10.5 ± 0.3 mg/dL, the “Serum Creatinine (mean ± SD)” value ([6]; PGG 20 mg/kg + EG) was 0.6 ± 0.1 mg/dL and the “Serum Phosphate (mean ± SD)” value ([6]; PGG 20 mg/kg + EG) was 9.4 ± 0.8 mg/dL. The “Serum Uric acid (mean ± SD)” value ([6]; PGG 20 mg/kg + EG) was 1.6 ± 1.0 mg/dL, the “Urine Calcium” value ([6]; PGG 20 mg/kg + EG) was 3.52 ± 0.31 and the “Urine Mean Vol ± SD” value ([6]; PGG 20 mg/kg + EG) was 34.7 ± 3.59 mL. For the same molecule, the “Urine Mean pH ± SD” value ([6]; PGG 20 mg/kg + EG) was 7.1 ± 0.8, the “Survival (%)” value ([6]; PGG 20 mg/kg) was 100% and the “survival time of the rats” value ([6]; upon administration of PGG, FIG. 12 and Table 4) was “increased”. For the same molecule, the “number of stones (calcium oxalate in urine) versus stone group” value ([6]; urine at 21 days, FIG. 14) was “considerably less”.
